Reference: ChEMBL document CHEMBL4321837, “Discovery of Potent and Orally Effective Dual Janus Kinase 2/FLT3 Inhibitors for the Treatment of Acute Myelogenous Leukemia and Myeloproliferative Neoplasms” (J Med Chem, 2019)
Active and inactive are the calls of the source. The rule behind the calls is not given here.

Legend:
HCT-116 = test: Antiproliferative activity against human HCT116 cells assessed as reduction in cell growth after 72 hrs by MTT assay; type: functional, cell-based
[1] = target: Receptor-type tyrosine-protein kinase FLT3 (Homo sapiens, UniProt P36888, D835Y); test: Inhibition of recombinant human FLT3 D835Y mutant (564 to end residues) using EAIYAAPFAKKK as substrate incubated for 40 mins in presence of [gamma33P]-ATP by scintillation counting based radiometry assay
CDK6/cyclin D3 = CDK6/cyclin D3 (Homo sapiens, UniProt Q00534); test: Inhibition of recombinant full length human CDK6/CyclinD3 using histone H1 as substrate incubated for 30 mins in presence of [gamma33P]-ATP by scintillation counting based radiometry assay; type: protein-complex assay
MV4-11 [2] = test: Induction of apoptosis in human MV4-11 cells assessed as early apoptotic cells at 0.2 uM after 24 hrs by Annexin V FITC/PI staining based flow cytometry analysis (reference value: 2.14%); type: functional
JAK3/JAK1 = JAK3/JAK1 (Homo sapiens, UniProt P23458+P52333); test: Inhibition of JAK1/JAK3 in human PBMC cells assessed as reduction in IL-2-induced STAT5 phosphorylation by flow cytometry; type: cell-based
Cytochrome P450 2E1 = Cytochrome P450 2E1 (Homo sapiens, UniProt P05181); test: Inhibition of CYP2E1 (unknown origin); type: ADME
MV4-11 [3] = test: Induction of apoptosis in human MV4-11 cells assessed as late apoptotic cells at 0.8 uM after 24 hrs by Annexin V FITC/PI staining based flow cytometry analysis (reference value: 1.38%); type: functional
Cytochrome P450 2C19 = Cytochrome P450 2C19 (Homo sapiens, UniProt P33261); test: Inhibition of CYP2C19 (unknown origin); type: ADME
Homo sapiens = species on record: Homo sapiens; test: Inhibition of JAK2 V617F mutant/FLT3 in human SET2 cells assessed as reduction in STAT5 phosphorylation at 0.2 uM after 2 hrs by Western blot analysis; type: cell-based
MV4-11 [4] = test: Induction of cell cycle arrest in human MV4-11 cells assessed as accumulation at S phase at 0.01 uM after 24 hrs by propidium iodide staining based flow cytometry analysis (reference value: 30.11%); type: functional
MOLM-13 = test: Antiproliferative activity against FLT3-ITD-positive human MOLM13 cells assessed as reduction in cell growth after 72 hrs by MTT assay; type: functional, cell-based; conditions: MOLM-13, 72 h
MV4-11 [5] = test: Induction of cell cycle arrest in human MV4-11 cells assessed as accumulation at G0/G1 phase at 0.01 uM after 24 hrs by propidium iodide staining based flow cytometry analysis (reference value: 54.49%); type: functional
MV4-11 [6] = test: Induction of apoptosis in human MV4-11 cells assessed as necrotic cells at 0.8 uM after 24 hrs by Annexin V FITC/PI staining based flow cytometry analysis (reference value: 0.18%); type: functional
[7] = target: Tyrosine-protein kinase JAK2 (Homo sapiens, UniProt O60674); test: Inhibition of human JAK2 (808 to end residues) assessed as residual activity at 100 nM using KTFCGTPEYLAP as substrate after 40 mins in presence of [gamma33P]-ATP by scintillation counting based radiometric assay relative to control
[8] = target: T1, Tyrosine-protein kinase JAK1 (Homo sapiens, UniProt P23458); test: Inhibition of JAK1 in human PBMC cells assessed as reduction in IL-6-induced STAT3 phosphorylation by flow cytometry; type: cell-based
MV4-11 [9] = test: Induction of apoptosis in human MV4-11 cells assessed as viable cells at 0.4 uM after 24 hrs by Annexin V FITC/PI staining based flow cytometry analysis (reference value: 96.3%); type: functional; conditions: MV4-11, 24 h, read-out: Activity
MV4-11 [10] = test: Inhibition of JAK2/FLT3 ITD mutant in human MV4-11 cells assessed as reduction in STAT5 phosphorylation at 0.2 uM after 2 hrs by Western blot analysis; type: cell-based
MV4-11 [11] = test: Induction of apoptosis in human MV4-11 cells assessed as late apoptotic cells at 0.4 uM after 24 hrs by Annexin V FITC/PI staining based flow cytometry analysis (reference value: 1.38%); type: functional
[12] = Half life in dog liver microsomes; type: ADME, Canis lupus familiaris, Microsome
[13] = target: Tyrosine-protein kinase Lck (Homo sapiens, UniProt P06239); test: Inhibition of recombinant human full length human LCK using KVEKIGEGTYGVV as substrate incubated for 40 mins in presence of [gamma33P]-ATP by scintillation counting based radiometry assay
[14] = Tmax in Sprague-Dawley rat at 5 mg/kg, po measured up to 24 hrs by LC/MS/MS analysis; type: ADME, organism-based; conditions: in vivo, 24 h
MV4-11 [15] = test: Induction of cell cycle arrest in human MV4-11 cells assessed as accumulation at G2/M phase at 0.01 uM after 24 hrs by propidium iodide staining based flow cytometry analysis (reference value: 15.4%); type: functional
[16] = target: Tyrosine-protein kinase Lyn (Homo sapiens, UniProt P07948); test: Inhibition of recombinant full length human LYN using poly(Glu, Tyr) 4:1 as substrate incubated for 40 mins in presence of [gamma33P]-ATP by scintillation counting based radiometry assay
NCI-H460 = test: Antiproliferative activity against human NCI-H460 cells assessed as reduction in cell growth after 72 hrs by MTT assay; type: functional, cell-based
[17] = target: Vascular endothelial growth factor receptor 3 (Homo sapiens, UniProt P35916); test: Inhibition of recombinant human FLT4 (800 to 1297 residues) using poly(Glu:Tyr) as substrate incubated for 30 mins in presence of [gamma33P]-ATP by scintillation counting based radiometry assay
MV4-11 [18] = test: Induction of apoptosis in human MV4-11 cells assessed as necrotic cells at 0.4 uM after 24 hrs by Annexin V FITC/PI staining based flow cytometry analysis (reference value: 0.18%); type: functional
[19] = target: T1, Tyrosine-protein kinase JAK1; test: Inhibition of human JAK1 (866 to end residues) GEEPLYWSFPAKK as substrate after 40 mins in presence of [gamma33P]-ATP by scintillation counting based radiometric assay
[20] = Terminal elimination half life in Sprague-Dawley rat at 5 mg/kg, po measured up to 24 hrs by LC/MS/MS analysis; type: ADME, organism-based; conditions: in vivo, 24 h

T1 sequence (P23458 whole entry): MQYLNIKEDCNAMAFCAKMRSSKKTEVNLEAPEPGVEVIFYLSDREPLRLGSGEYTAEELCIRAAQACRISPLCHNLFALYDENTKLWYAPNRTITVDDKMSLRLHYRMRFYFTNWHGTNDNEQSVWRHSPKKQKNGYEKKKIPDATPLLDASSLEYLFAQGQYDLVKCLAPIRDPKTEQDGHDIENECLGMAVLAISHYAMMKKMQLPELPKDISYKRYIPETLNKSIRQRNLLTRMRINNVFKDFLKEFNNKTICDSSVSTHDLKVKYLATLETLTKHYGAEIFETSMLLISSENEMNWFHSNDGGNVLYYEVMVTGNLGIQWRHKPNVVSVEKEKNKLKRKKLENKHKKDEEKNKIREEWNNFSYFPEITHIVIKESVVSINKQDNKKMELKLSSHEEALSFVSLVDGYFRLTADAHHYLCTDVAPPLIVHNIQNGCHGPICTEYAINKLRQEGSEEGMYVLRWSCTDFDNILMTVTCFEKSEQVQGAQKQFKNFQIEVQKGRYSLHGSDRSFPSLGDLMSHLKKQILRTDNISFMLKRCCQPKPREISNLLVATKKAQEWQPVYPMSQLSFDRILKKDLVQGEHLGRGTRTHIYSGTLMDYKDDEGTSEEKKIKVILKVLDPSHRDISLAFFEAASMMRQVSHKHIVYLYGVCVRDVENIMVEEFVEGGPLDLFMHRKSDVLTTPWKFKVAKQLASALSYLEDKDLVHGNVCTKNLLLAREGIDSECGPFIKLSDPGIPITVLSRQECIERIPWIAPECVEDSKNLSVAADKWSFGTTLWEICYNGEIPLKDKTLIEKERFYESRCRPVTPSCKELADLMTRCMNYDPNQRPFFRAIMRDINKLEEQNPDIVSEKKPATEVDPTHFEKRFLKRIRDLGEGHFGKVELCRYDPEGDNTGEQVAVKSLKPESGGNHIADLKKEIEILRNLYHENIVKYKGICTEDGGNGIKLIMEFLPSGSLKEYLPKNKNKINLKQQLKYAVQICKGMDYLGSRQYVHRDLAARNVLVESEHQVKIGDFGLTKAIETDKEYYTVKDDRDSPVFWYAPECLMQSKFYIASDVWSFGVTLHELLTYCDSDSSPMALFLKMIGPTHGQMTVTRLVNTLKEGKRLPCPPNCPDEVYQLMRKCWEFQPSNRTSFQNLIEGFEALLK
Tyrosine-protein kinase Lyn, sequence (P07948 whole entry): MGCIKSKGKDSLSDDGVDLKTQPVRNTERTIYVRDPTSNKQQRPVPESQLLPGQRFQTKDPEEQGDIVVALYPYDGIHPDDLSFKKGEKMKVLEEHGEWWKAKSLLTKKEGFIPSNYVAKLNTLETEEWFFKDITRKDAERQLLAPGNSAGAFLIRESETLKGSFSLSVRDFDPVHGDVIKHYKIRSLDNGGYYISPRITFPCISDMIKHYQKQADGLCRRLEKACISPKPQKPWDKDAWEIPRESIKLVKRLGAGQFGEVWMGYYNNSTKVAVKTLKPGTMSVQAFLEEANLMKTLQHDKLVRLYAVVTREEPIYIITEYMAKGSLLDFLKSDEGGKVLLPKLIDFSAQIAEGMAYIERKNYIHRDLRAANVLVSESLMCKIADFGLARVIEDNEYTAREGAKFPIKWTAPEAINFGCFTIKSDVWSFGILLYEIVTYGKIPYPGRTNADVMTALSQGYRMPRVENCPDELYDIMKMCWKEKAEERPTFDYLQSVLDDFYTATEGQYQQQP
Vascular endothelial growth factor receptor 3, sequence (P35916 whole entry, the tested form may be a part): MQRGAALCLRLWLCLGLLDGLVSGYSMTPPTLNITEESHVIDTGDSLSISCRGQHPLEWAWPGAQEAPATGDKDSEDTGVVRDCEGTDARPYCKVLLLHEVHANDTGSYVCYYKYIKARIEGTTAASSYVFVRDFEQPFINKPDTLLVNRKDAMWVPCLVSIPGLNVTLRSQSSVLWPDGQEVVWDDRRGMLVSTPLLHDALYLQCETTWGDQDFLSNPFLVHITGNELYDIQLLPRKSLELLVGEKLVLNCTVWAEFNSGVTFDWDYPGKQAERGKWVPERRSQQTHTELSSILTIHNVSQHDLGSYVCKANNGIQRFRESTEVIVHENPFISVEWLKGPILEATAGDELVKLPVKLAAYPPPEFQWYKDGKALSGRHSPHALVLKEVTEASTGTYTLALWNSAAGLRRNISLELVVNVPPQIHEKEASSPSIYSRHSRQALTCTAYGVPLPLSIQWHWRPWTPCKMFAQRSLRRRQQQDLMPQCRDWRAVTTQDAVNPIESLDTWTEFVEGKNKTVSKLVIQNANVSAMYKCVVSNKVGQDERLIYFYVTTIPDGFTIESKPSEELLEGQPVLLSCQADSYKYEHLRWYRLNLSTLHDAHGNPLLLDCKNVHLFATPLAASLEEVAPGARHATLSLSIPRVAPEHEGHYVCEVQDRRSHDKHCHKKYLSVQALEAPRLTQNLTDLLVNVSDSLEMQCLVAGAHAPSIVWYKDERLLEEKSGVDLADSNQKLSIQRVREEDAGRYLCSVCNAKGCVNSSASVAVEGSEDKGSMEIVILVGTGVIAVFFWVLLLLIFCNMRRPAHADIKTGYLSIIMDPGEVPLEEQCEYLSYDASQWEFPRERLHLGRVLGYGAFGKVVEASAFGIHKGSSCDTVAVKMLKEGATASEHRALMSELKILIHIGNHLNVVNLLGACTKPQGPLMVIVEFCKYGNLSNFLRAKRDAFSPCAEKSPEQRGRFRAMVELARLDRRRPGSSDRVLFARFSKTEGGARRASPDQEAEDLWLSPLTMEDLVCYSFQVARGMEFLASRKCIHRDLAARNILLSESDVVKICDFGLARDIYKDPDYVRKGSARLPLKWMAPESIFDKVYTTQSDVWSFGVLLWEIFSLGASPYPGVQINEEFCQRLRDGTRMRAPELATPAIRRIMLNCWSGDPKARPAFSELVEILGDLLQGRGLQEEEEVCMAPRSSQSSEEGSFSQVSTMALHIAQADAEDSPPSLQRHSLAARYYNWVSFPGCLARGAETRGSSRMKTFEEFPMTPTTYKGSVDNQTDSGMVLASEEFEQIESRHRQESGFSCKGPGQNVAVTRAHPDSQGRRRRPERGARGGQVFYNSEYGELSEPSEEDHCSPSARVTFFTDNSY
Tyrosine-protein kinase Lck, sequence (P06239 whole entry): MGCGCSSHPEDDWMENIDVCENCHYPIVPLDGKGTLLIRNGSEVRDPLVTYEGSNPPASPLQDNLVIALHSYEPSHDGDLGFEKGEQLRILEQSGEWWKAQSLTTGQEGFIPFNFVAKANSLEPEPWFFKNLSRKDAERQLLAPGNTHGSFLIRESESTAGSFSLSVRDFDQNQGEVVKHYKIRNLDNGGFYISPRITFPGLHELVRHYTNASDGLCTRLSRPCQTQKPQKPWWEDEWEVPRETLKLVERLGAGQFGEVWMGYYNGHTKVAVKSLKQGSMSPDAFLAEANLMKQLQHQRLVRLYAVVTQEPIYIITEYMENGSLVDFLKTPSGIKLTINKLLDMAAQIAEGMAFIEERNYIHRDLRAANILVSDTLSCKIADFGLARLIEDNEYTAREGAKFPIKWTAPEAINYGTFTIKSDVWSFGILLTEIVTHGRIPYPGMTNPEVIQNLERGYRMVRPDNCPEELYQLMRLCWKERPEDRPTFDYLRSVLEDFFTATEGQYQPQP
Tyrosine-protein kinase JAK2, sequence (O60674 whole entry): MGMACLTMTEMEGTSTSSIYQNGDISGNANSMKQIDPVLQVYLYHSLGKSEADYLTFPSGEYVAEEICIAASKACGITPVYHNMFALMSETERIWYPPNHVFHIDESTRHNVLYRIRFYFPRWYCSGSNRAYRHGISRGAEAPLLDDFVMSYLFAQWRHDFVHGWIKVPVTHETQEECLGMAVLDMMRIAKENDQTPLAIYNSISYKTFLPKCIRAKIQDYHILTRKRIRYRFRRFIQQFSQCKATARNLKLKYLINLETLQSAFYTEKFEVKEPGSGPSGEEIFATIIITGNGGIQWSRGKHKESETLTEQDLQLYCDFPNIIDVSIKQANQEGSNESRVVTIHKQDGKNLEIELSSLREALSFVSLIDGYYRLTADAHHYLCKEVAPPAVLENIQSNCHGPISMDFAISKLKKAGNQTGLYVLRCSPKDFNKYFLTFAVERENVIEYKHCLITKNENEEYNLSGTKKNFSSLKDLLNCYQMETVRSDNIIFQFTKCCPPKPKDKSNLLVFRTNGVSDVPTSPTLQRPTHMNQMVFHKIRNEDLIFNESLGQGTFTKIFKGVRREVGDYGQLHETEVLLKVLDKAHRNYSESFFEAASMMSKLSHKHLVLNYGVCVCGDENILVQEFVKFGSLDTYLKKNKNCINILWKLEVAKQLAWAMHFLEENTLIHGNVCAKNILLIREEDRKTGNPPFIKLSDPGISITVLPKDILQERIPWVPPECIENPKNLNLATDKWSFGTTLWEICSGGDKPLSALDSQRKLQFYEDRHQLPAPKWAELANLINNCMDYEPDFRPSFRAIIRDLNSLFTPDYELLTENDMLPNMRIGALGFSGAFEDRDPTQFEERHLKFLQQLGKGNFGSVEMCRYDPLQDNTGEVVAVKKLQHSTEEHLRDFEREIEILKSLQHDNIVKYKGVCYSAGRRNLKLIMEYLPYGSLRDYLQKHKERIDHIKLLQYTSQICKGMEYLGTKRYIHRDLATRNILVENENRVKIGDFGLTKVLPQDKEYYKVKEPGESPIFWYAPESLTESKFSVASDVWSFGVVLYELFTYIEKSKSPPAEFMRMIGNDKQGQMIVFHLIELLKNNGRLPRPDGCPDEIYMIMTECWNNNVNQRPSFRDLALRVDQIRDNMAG

Cc1cnc(Nc2ccc(N3CCC(N(C)CCO)CC3)c(F)c2)nc1-c1cnn(C(C)C)c1
Activity (HCT-116): Active | IC50 [1]: 4 nM | IC50 (CDK6/cyclin D3): 66 nM | Activity (MV4-11 [2]): 11.9% | IC50 (JAK3/JAK1): 112 nM | IC50 (Cytochrome P450 2E1): > 100000 nM | Activity (MV4-11 [3]): 29.3% | IC50 (Cytochrome P450 2C19): 74700 nM | inhibition (Homo sapiens): Active | Activity (MV4-11 [4]): 29.65% | IC50 (MOLM-13): 72 nM | Activity (MV4-11 [5]): 58.55% | Activity (MV4-11 [6]): 0.93% | Activity [7]: 0% | IC50 [8]: 94.2 nM | viability at 0.4 µM (MV4-11 [9]): 51.2% | inhibition (MV4-11 [10]): Active | Activity (MV4-11 [11]): 26.5% | half-life [12]: 3.12 h | IC50 [13]: 27 nM | Tmax [14]: 1.5 h | Activity (MV4-11 [15]): 11.8% | IC50 [16]: 17 nM | Activity (NCI-H460): Active | IC50 [17]: 8 nM | Activity (MV4-11 [18]): 1.04% | IC50 [19]: 26 nM | beta t1/2 [20]: 4.1 h
